Results published in US8642646B2, “Method and composition for treating acne using lignan compounds” (New Tree Industry Co., Ltd., priority 2004, dated 2014).
In brackets after ≈: the same amount, converted by molar mass.

Key:
Propionibacterium acnes [1] = conditions: literature values; cited from earlier work
Staphylococcus epidermis = assay: Minimum inhibitory concentration (MIC), broth serial dilution; format: cell-based; conditions: same method, read-out: Minimum inhibitory concentration against Staphylococcus epidermis
Procedure: (§1) The macelignan compound prepared in Example <1-1> was dissolved in 0.5% methanol, and 1 ml of BHI (Brain Heart Infusion) broth was placed into each of test tubes. 1 ml of 2% macelignan solution was placed only into the first test tube and serially diluted 2-fold. Then, 100 μl of Propionibacterium acnes were added at 2×10^5 CFU/ml to each test tube and cultured at 37° C. for at least 24 hours. […] Using the same method, the minimum inhibitory concentrations against Staphylococcus aureus and Staphylococcus epidermis were also measured and the results are shown in Table 2.

Propionibacterium acnes [2] = assay: as above; format: cell-based; conditions: Cutibacterium acnes; BHI broth, 37° C., at least 24 hours; read-out: Minimum inhibitory concentration against Propionibacterium acnes
Procedure: as §1

Staphylococcus aureus = assay: as above; format: cell-based; conditions: same method, read-out: Minimum inhibitory concentration against Staphylococcus aureus
Procedure: as §1

acne-causing bacteria = assay: Thermal stability: antibacterial activity by well diffusion assay after thermal treatment; format: cell-based; conditions: for Diameter of clear zone on the plate containing macelignan: 0.1% in dimethylsulfoxide
Procedure: The macelignan compound prepared in Example <1-1> was dissolved in dimethylsulfoxide to a concentration of 0.1%. The sample was thermally treated for 30 minutes at different temperatures of 60° C., 70° C., 80° C., 90° C., 100° C., and 121° C. and measured for antibacterial activity by the well diffusion assay.

Propionibacterium acnes [3] = assay: Growth inhibition of Propionibacterium acnes by viable cell counting; format: cell-based; conditions: 37° C.
Procedure: The macelignan compound prepared in Example <1-1> was dissolved in dimethylsulfoxide to concentrations of 0.002%, 0.001% and 0.0005%, respectively. 100 μl of Propionibacterium acnes diluted to 2×10^5 CFU/ml was added to test tubes containing the macelignan solutions and allowed to react at 37° C. for 2 hr, 4 hr, 8 hr, 12 hr, 16 hr, 20 hr, and 24 hr. Each sample was serially diluted 10-fold and subjected to the pour plate method. The plates were cultured in an incubator at 37° C. and measured for viable cell colonies of Propionibacterium acnes.

acne patients = assay: Clinical test on acne patients, oral administration; format: in vivo, human
Procedure: The macelignan isolated and purified in Example <1-1> was clinically tested for acne treatment. • 30 men and women in their mid-30s, who suffer from acne, were selected as test subjects. The macelignan was administered to the test subjects at 600 mg two times a day for 4 weeks.

[4] = oral 600 mg two times a day, 4 weeks

## O=C(OOC(=O)c1ccccc1)c1ccccc1 [benzoyl peroxide]
Propionibacterium acnes [1]
  MIC against Propionibacterium acnes: 500 to 1000 µg/mL

## benzalkonium chloride
Propionibacterium acnes [1]
  MIC against Propionibacterium acnes: 200˜300 μg/ml

## CC1=CCC(O)(C(C)C)CC1 (stereo not drawn) [terpinen-4-ol]
Propionibacterium acnes [1]
  MIC against Propionibacterium acnes: 300 to 500 µg/mL

## COc1cc(C[C@H](C)[C@H](C)Cc2ccc3c(c2)OCO3)ccc1O [macelignan]
Staphylococcus epidermis
  MIC: 64 µg/mL (≈ 195 µM)
Propionibacterium acnes [2]
  MIC: 2 µg/mL (≈ 6.09 µM)
Staphylococcus aureus
  MIC: 125 µg/mL (≈ 381 µM)
acne-causing bacteria; treated 30 minutes at 60° C.
  Diameter of clear zone on the plate containing macelignan: 17 mm
acne-causing bacteria; treated 30 minutes at 70° C.
  Diameter of clear zone on the plate containing macelignan: 16 mm
acne-causing bacteria; treated 30 minutes at 80° C.
  Diameter of clear zone on the plate containing macelignan: 17 mm
acne-causing bacteria; treated 30 minutes at 90° C.
  Diameter of clear zone on the plate containing macelignan: 17 mm
acne-causing bacteria; treated 30 minutes at 100° C.
  Diameter of clear zone on the plate containing macelignan: 18 mm
acne-causing bacteria; treated 30 minutes at 121° C.
  Diameter of clear zone on the plate containing macelignan: 17 mm
acne-causing bacteria; thermal treatment at 60° C.-121° C.
  thermal stability (change of antibacterial activity after thermal treatment): little or no reduction in antibacterial activity
Propionibacterium acnes [3]; macelignan 0.001% (10 μg/ml)
  time within which the bacteria were almost dead: ≤ 8 h
Propionibacterium acnes [3]; macelignan 0.002% (20 μg/ml)
  time within which the bacteria were almost dead: ≤ 2 h
Acne patients; [4]
  Comedos, mean number after 4 weeks of administration: 7.94
  Nodules, mean number after 4 weeks of administration: 0.24
  Papules, mean number after 4 weeks of administration: 5.69
  Pustules, mean number after 4 weeks of administration: 2.30
Acne patients; oral 600 mg two times a day, 4 weeks, p-value<0.05
  number of lesions after 4 weeks compared to before administration: remarkably reduced
Acne patients; oral, before administration
  Comedos, mean number before administration: 18.92
  Nodules, mean number before administration: 0.74
  Papules, mean number before administration: 14.47
  Pustules, mean number before administration: 5.92
